From patent US10912741B2, “Prevention of liver cancer with safranal-based formulations” (United Arab Emirates University, priority 2019, dated 2021)

Assays:
Type in all cases: in vivo, albino Wistar rats
Ki-67 = assay: Immunohistochemical staining of liver sections, Ki-67 (cell proliferation)
Protocol: (§1) The experimental hepatocarcinogenesis model was developed according to a protocol by Espandiaria et al. that was adapted for our purposes. To initiate and promote hepatocarcinogenesis, diethylnitrosamine (DEN) and 2-acetylaminofluorene (2-AAF) were used, respectively. For hepatocarcinogenesis initiation in this model, a single DEN dose (200 mg/kg b.wt.) dissolved in saline was injected intraperitoneally. After initiation, all rats underwent one period of 5-days fasting, as mitotic proliferative stimuli. To promote hepatocarcinogenesis, 2-acetylaminofluorene (2-AAF) was introduced in the form of six daily intragastric doses (30 mg/kg in 1% Tween 80); two weeks after DEN treatment.
(§2) Safranal at doses of 25 mg/kg by weight (b.wt.) and 50 mg/kg b.wt, was administrated orally to rats. These doses have been reported to suppress chemically-induced oxidative damage in rats. A total of 40 adult male albino Wistar rats were randomly divided into […] (n=8) and were subjected to different treatments. […]
(§3) For immunohistochemical staining, mounted sections were immersed in sodium citrate buffer (0.1 M, pH 6) and placed in a water bath for 15 minutes to unmask antigen epitopes. […] Ten fields were randomly selected to quantify positive cells, in individual samples (400×). […]

[1] = test system: protein carbonyl (P. carbonyl); assay: Protein carbonyl content in liver homogenate, DEN/2-AAF hepatocarcinogenesis model; conditions: mean±SEM, 8 rats
Protocol: The experimental hepatocarcinogenesis model was developed according to a protocol by […] et al. that was adapted for our purposes. To initiate and promote hepatocarcinogenesis, diethylnitrosamine (DEN) and 2-acetylaminofluorene (2-AAF) were used, respectively. For hepatocarcinogenesis initiation in this model, a single DEN dose (200 mg/kg b.wt.) dissolved in saline was injected intraperitoneally. After initiation, all rats underwent one period of 5-days fasting, as mitotic proliferative stimuli. To promote hepatocarcinogenesis, 2-acetylaminofluorene (2-AAF) was introduced in the form of six daily intragastric doses (30 mg/kg in 1% Tween 80); two weeks after DEN treatment. […] at doses of 25 mg/kg by weight (b.wt.) and 50 mg/kg b.wt, was administrated orally to rats. These doses have been reported to suppress chemically-induced oxidative damage in rats. A total of 40 adult male albino Wistar rats were randomly divided into […] (n=8) and were subjected to different treatments. Group 1 (control) was orally administered distilled water (5 ml/kg b.wt.) throughout the experimental duration and were injected with a single dose of saline. Group 2 ([…] only) was subjected to a safranal dose (50 mg/kg b.wt.) through oral administration for the duration of the experimental period. Hepatocarcinogenesis was induced by DEN and promoted by 2-AAF, as reported previously, in group 3 (HCC). […] Glutathione (GSH) content was determined by analyzing liver homogenates, according to the method of Van Dooran et al. The assay depends on measuring yellow 5-thiol-2-nitrobenzoate absorbance at 412 nm. Glutathione-S-transferase (GST) activity was determined using the method of Habig et al. GST catalyzes the conjugation of GSH thiol group with 1-Chloro-2,4-dinitrobenzene (CDNB), which can be measured by determining the increase in absorbance at 340 nm. […] CAT decomposes hydrogen peroxide (H2O2) to oxygen and water; therefore, the activity of CAT was evaluated according to by the exponential decomposition of H2O2 at 240 nm. […] UV-160-Shimadzu recording spectrophotometer was used to record absorbances. […]

[2] = test system: placental glutathione s-transferase (GST-p); assay: Immunohistochemical staining of liver sections, GST-p positive foci
Protocol: as §1, §2, §3

NF-kB-p65 = assay: Immunohistochemical staining of liver sections, NF-kB-p65 positive cells; conditions: low/high doses of safranal, DEN-exposed rats, vs HCC group
Protocol: as §1, §2, §3

CC1=C(C=O)C(C)(C)CC=C1 [Safranal, 2,6,6-trimethylcyclohexa-1,3-diene-1-carbaldehyde]
number of Ki-67 positive cells (Ki-67; low/high doses of safranal in animals exposed to DEN (groups 4-5)): dramatically reduced the number of Ki-67 positive cells | number of Ki-67-expressing hepatocytes (Ki-67; safranal alone (group 2)): did not induce a significant change | P.Carbonyl ([1]; HCC (DEN/2-AAF) rats + safranal high dose 50 mg/kg b.wt. oral, 12 weeks): 1.45 ± 0.06 nmol/mg protein | P.Carbonyl ([1]; HCC (DEN/2-AAF) rats + safranal low dose 25 mg/kg b.wt. oral, 12 weeks): 1.61 ± 0.06 nmol/mg protein | P.Carbonyl ([1]; safranal alone 50 mg/kg b.wt. oral, no DEN (group 2)): 1.52 ± 0.03 nmol/mg protein | number of GST-p positive foci and area/cm^2 ([2]; safranal treatment after DEN exposure (groups 4-5, 25/50 mg/kg b.wt.)): significantly reduced the number of GST-p positive foci and the area/cm^2 | GST-p positive foci ([2]; safranal treatment alone (group 2)): did not induce formation of such foci | number of NF-kB-p65-positive cells (NF-kB-p65): significantly reduced the number of NF-kB-p65-positive cells
